Measurements reported in US20210038732A1, “ANTICANCER MICRORNA AND LIPID FORMULATIONS THEREOF” (INTERNA TECHNOLOGIES B.V., priority 2018, published 2021).

Experiments:
[1] = tested on: genes downregulated in at least three cell lines; experiment: Annotation clustering of downregulated genes with DAVID software; set-up: species or system human
Text: For clustering and pathway analysis, a bigger gene set was required. […] Other clusters contained genes with roles in angiogenesis, unfolded protein response, chemotaxis, protein transport, nucleoside metabolism, glycosylation, oncogenesis, wound healing. […] These 161 genes are ERMP1, MCL1, ZDHHC18, KIAA1147, IDS, EIF4B, ETS1, TXLNA, NT5E, WSB2, PLAUR, LRRC40, PTPLB, SLC15A1, NCEH1, IL17RD, STMN1, AIMP2, PHACTR2, GALNT1, LAMC2, SCP2, SLC26A2, LUZP1, SHMT2, UBP1, PHLDA2, ST5, ENDOD1, CGNL1, MARCKSL1, RAB11FIP5, CCND1, RUSC1, FAM168B, ZC3H7B, PPTC7, SLC39A5, ACSS2, TPP1, HYOU1, DCTN5, CRKL, WDFY2, WDR82, SLC6A12, CDK6, SULF2, TWISTNB, ATP5F1, ALDH9A1, TOR4A, NET1, RSF1, NUP50, ZMAT3, AP2M1, MPP2, ITGB3, GALNT14, SLC35D1, PPARGC1A, TBL1XR1, MSANTD3, CLSTN1, PITPNB, CECR2, KIAA1644, ARHGAP29, KIAA1191, GREB1, PIK3R1, TNFRSF21, SEPN1, SYNRG, LRP4, ZNF365, CRYAA, MED21, GNAI3, ATP5SL, UBE2L6, ANKRD13A, GCH1, NIPA1, TRIM62, USP39, HEG1, DCAF7, LRRC8A, SOX5, IRF1, MORC4, UNC119B, FAF2, SLC30A1, C1QBP, ST3GAL4, TRIB2, TBC1D5, TMPPE, MAPK8, CBX1, CADM1, CCDC28A, YWHAZ, ERAP2, STON2, AP5M1, TGFB2, CYTH1, FAM20B, DPY19L1, ARHGAP19, LPAR3, LMLN, NUDT15, PLAU, VAMP8, HHAT, AGPAT1, ATP8B2, ACPL2, SCAMP4, LAT2, OSMR, NUDT21, HPRT1, STARD7, GABPA, CDC42EP2, THBS4, ATP6V1B2, PRNP, GFPT1, MAX, KRAS, CNOT6, NUDT3, RFWD3, APPL1, SLC23A2, BOD1, PDE3A, SLC30A7, CEP41, NOTCH2, RGS2, CDC42EP4, TP53INP1, SQSTM1, DDAH1, SLC35D2, FOCAD, GPATCH11, CBL, TMEM30B, HFE, PLEKHB2, ARPC5, and ABI2. Among these genes, NT5E, TNFRSF21, YWHAZ, MAPK8, PLAU, PLAUR, NOTCH2, ETS1, IL17RD, CDK6, EIF4B, and MCL1 are particularly interesting for their crucial involvement in the cell cycle pathway, in immune activation, as well as in cell movement. […] ETS1, YWHAZ, MPP2, PLAU, CDK4, CDK6, EIF4B, RAD51, CCNA2, STMN1, and DCAF7 are of particular interest for their crucial involvement in regulation of the cell cycle.

[2] = tested on: H22 (mouse liver tumor cells); experiment: Re-challenge of surviving treated mice with H22 cells (Example 4.4); type: in vivo
Protocol: To investigate the long-term immunity in miRNA-193a treated mice against 4T1 cells, on day 75 after inoculation, mice treated with miRNA-193a and 8 naïve (non-tumor bearing) mice were re-challenged by subcutaneous injection of 3×10^5 4T1 mouse tumor cells in PBS (0.1 mL/mouse) into the right front flank. TV and BW were monitored for 3 weeks. Then, to investigate the immunization status of miRNA-193a treated mice against other cell types, on day 101, mice treated with miRNA-193a and 8 naïve (non-tumor bearing) mice were re-challenged by subcutaneous injection of H22 (mouse liver tumor cells) cells in PBS (0.1 mL/mouse) into the right lower flank.

[3] = tested on: 4T1 cells; experiment: Adoptive CD3+ T-cell transfer from survivors into naive mice, 4T1 challenge; type: in vivo; details: 1×107 CD3+ T-cells iv; followed about 5 weeks; vs control naïve mice
Protocol: Adoptive transfer of CD3+ T cells form the survivor mice into naive mice was performed after spleens, auxiliary, brachial, and inguinal lymph nodes excision. Cell suspension were made from the indicated organs and pooled. Then, CD3+ T-cells were isolated from the pool using magnetic beads according the manufacturer's protocol (Miltenyi Biotech). 1×107 CD3+ T-cells per mouse were injected intravenously.
On day 133 post-tumor cell inoculation CD3+ T-cells were recovered from the spleens, auxiliary, brachial, and inguinal lymph nodes of the surviving animals. T-cells were pooled and transferred i.v. to 6 naïve age-matched mice (1×107 CD3+ Tcells per mouse at day 0). One day post-T-cell transfer, animals were re-challenged with 3×10^5 4T1 cells in PBS (0.1 mL/mouse) in the right mammary fat pad of 6 naive age-matched mice (as control group) and the 6 mice that received CD3+ T-cells. Tumor growth was followed for about 5 weeks.

miRNA-193a: duplex of the miRNA-193a-3p of SEQ ID NO: 218 (mimic, sense) with antisense strand SEQ ID NO: 219; naked in vitro, formulated in vivo (sense UGGGACUUUGUAGGCCAGUUTT; antisense AACUGGCCUACAAAGUCCCAGU; chemistry not given here; listed as Homo sapiens)
Enrichment score (ES) ([1]; Gene cluster Angiogenesis): 2.17 | Enrichment score (ES) ([1]; Gene cluster Apoptosis): 2.55 | Enrichment score (ES) ([1]; Gene cluster Chemotaxis): 1.66 | Enrichment score (ES) ([1]; Gene cluster Glycosylation): 1.47 | Enrichment score (ES) ([1]; Gene cluster Immune activation): 1.16 | Enrichment score (ES) ([1]; Gene cluster Nucleoside metabolism): 1.49 | Enrichment score (ES) ([1]; Gene cluster Oncogenesis): 1.37 | Enrichment score (ES) ([1]; Gene cluster Protein transport): 1.51 | Enrichment score (ES) ([1]; Gene cluster Unfolded protein response): 1.84 | Enrichment score (ES) ([1]; Gene cluster Wound healing): 1.18 | Tumor take after re-challenge with H22 cells ([2]; re-challenge day 101, 38 days post end of treatment): 100% | H22 tumor growth after re-challenge ([2]; re-challenge day 101, vs naïve mice): rapid inhibition of H22 tumor growth | 4T1 tumor growth in naive mice that received CD3+ T-cells from treated survivors [3]: did not show any 4T1 tumor growth
